From paper PMC10648406, “Pulicaria incisa (Lam.) DC. as a Potential Source of Antioxidant, Antibacterial, and Anti-Enzymatic Bioactive Molecules: Phytochemical Constituents, In Vitro and In Silico Pharmacological Analysis” (Molecules, 2023) come the findings set out here.

Converted amounts (≈) assume the structure as drawn.

One assay deals with A. baumannii. Description: MIC, resazurin microtitre method. Type of assay: cell-based. As to conditions: Acinetobacter baumannii, 24 h, 35 °C, read-out: Minimal inhibitory concentration. On the procedure: (§1) To ensure sterility, the extracts and DMSO underwent ultrafiltration before their use in the study. The minimum inhibitory concentration (MIC) of both aqueous and methanolic extracts was determined using a modified version of the resazurin method developed by Sarker and Nahar. A resazurin solution was prepared by dissolving 270 mg of resazurin in 40 mL of sterilized deionized water. In 96-well microtiter plates, the first row received 100 μL of samples in DMSO (1:10 v/v), while all other wells received 50 μL of Luria–Bertani broth or normal sterile solution. Serial dilutions of the extracts were performed in descending concentrations. To each well, 10 μL of the resazurin indicator solution was added. […] The plates were sealed with parafilm to prevent dehydration. A column of the plate contained the broad-spectrum antibiotic tetracycline, which was previously suspended in DMSO and served as a positive control. The negative control consisted of Luria–Bertani broth containing resazurin and bacteria without any samples. The plates were incubated at 37 °C (35 °C for A. baumannii) for 24 h. Visual observation was used to assess any color changes. If the solution changed from dark purple to pink or colorless, it was recorded as a positive result. The MIC value was determined as the lowest concentration of extracts that could prevent the color change from dark purple to pink.

For the next assay, the system named is E. coli. Description: MIC, resazurin microtitre method. As to conditions: Escherichia coli, 24 h, read-out: Minimal inhibitory concentration. The assay is classed as cell-based. Here is the method: as §1
The next assay has as its system L. monocytogenes. Put plainly: MIC, resazurin microtitre method. The assay is classed as cell-based. As to conditions: Listeria monocytogenes, 24 h, 37 °C, read-out: Minimal inhibitory concentration. Here is the method:
as §1
Background: Resazurin is reduced to fluorescent resorufin, in cell work by metabolically active cells.

The test system of another assay is P. aeruginosa. Put plainly: MIC, resazurin microtitre method. Type of assay: cell-based. As to conditions: Pseudomonas aeruginosa, 24 h, 37 °C, read-out: Minimal inhibitory concentration. On the procedure:
as §1

The subject of a further assay is S. aureus. Put plainly: MIC, resazurin microtitre method. The assay is classed as cell-based. As to conditions: Staphylococcus aureus, 24 h, read-out: Minimal inhibitory concentration. On the procedure:
as §1

A further assay can be described thus: DPPH assay. As to conditions: 45 min, 515 nm. Here is the method:
The antiradical activity of the stable 1,1-diphenyl-2-picrylhydrazyl radical (DPPH) was measured using the protocol of Xiang and coworkers with slight modifications. […] To produce final concentrations ranging from 31.25 to 1000 µg/mL, aliquots of extracts were dissolved in methanol. In a straight-sided cuvette, an aliquot of methanol solution containing different concentrations of either methanolic or aqueous extracts was added to a DPPH solution (60 μM) to a final volume of 1 mL. As a control, an identical quantity of DPPH solution was applied to the cuvette, and methanol alone was used as the blank. After 45 min, the absorbance at 515 nm was measured with a Multiskan GO spectrophotometer (Thermo Fisher Scientific, Vantaa, Finland).
The standard was 6-hydroxy 2,5,7,8-tetramethylchroman-2-carboxylic acid (Trolox, Sigma-Aldrich, Milan, Italy).
A general note: The DPPH test is a chemical assay of radical scavenging.

On to `CN(C)[C@@H]1C(O)=C(C(N)=O)C(=O)[C@@]2(O)C(O)=C3C(=O)c4c(O)cccc4[C@@](C)(O)[C@H]3C[C@@H]12` [Tetracycline], for which the MIC in the assay with A. baumannii came out at 25 ± 2 µg/mL (≈ 56.3 µM); with E. coli it was 25 ± 2 µg/mL (≈ 56.3 µM); with L. monocytogenes, 32 ± 1 µg/mL (≈ 72 µM); in the assay on P. aeruginosa, 28 ± 1 µg/mL (≈ 63 µM); with S. aureus it was 28 ± 1 µg/mL (≈ 63 µM).

On to `Cc1c(C)c2c(c(C)c1O)CCC(C)(C(=O)O)O2` (stereo not drawn) [Trolox, 6-hydroxy 2,5,7,8-tetramethylchroman-2-carboxylic acid], for which the “DPPH (IC50)” value in “DPPH assay” came to 3.65 ± 0.01 µg/mL.
